Experimental data as given in patent publication US20080227713A1, “Oxidized Human Bnp” (priority 2005, published 2008).
Marks after values point to notes of the source that are not given here.

Experiments:
[1] = Plasma peptide levels (EIA) during dose-escalating continuous intravenous infusion in conscious rabbits; type: in vivo; details: rabbit; for Plasma steady state concentration: n = 6
Source text: (§1) New Zealand White male rabbits (R & R Rabbitry, WA) weighing 2.5 to 3.0 kg, were used in the study. Upon receipt, the animals were allowed a 1-week acclimation period at the animal facility to ensure proper health status prior to the study. On the day of the study, the rabbits were weighed and placed in an open top plexiglass restrainers with adjustable plexiglass and nylon covers. The ears were shaved, 2% Lidocaine HCl (Xylocalne jelly, Astra, Westborough, Mass.) was applied topically on the surface of the ears, and IV catheters (Angiocath, Becton Dickinson, Utah) fitted with heparin locks were inserted into the intermedial branch of the peripheral ear vein for drug administration and into the central ear artery for repeated blood sampling.
(§2) Blood samples were drawn 20 minutes prior to and 0, 50, 55, 60, 110, 115, 120, 170, 175, and 180 minutes following initiation of the infusion. […] Blood samples were taken at 20 minutes prior to dosing, immediately prior to dosing and 5, 10, 15, 30, 60, and 90 minutes after dosing. Blood samples (3 mL) was drawn at each time point and the volume replaced with an equal volume of 0.9% NaCl. Blood was collected into EDTA coated tubes containing aprotinin (150 kallikrein inhibitory units/tube) and centrifuged immediately.
(§3) The plasma samples were diluted appropriately with pooled normal rabbit plasma prior to assay. […] Levels of the biotinylated probe were measured by using a sensitive enzyme based detection system, avidin-HRP, and a […] that provided a colorimetric endpoint.

[2] = Plasma peptide levels (EIA) after a single intravenous bolus in conscious rabbits; details: male, New Zealand White, in vivo, 30 ug/kg, rabbit, single iv bolus 30 μg/kg, n = 4
Source text: as §1, §2, §3

[3] = test system: plasma cyclic GMP; test: Plasma cyclic GMP during dose-escalating continuous intravenous infusion in conscious rabbits; type: in vivo; details: rabbit; for Mean Plasma Cyclic GMP ± SD: n = 6
Source text: as §1, §2
(§4) Plasma cyclic GMP levels were determined by radioimmunoassay (DuPont, Boston, Mass.). […] Separation of the bound from free antigen was performed using a pre-reacted primary and secondary antibody complex. Prior to the assay, the plasma samples were extracted with ethanol and the supernate evaporated to dryness in a speed vac concentrator (Savant Instruments, Holbrook, N.Y.). The dried samples were reconstituted with sodium acetate buffer. Plasma cyclic GMP levels were determined by interpolation from the standard curve (0.01 to 10 pmol/mL).

[4] = test system: plasma cyclic GMP; test: Plasma cyclic GMP after a single intravenous bolus in conscious rabbits; type: in vivo; details: rabbit, single iv bolus 30 μg/kg, n = 4
Source text: as §1, §2, §4

With `CC[C@H](C)[C@@H]1NC(=O)[C@H](CCCNC(=N)N)NC(=O)[C@H](CC(=O)O)NC(=O)[C@H](CCSC)NC(=O)[C@H](CCCCN)NC(=O)[C@H](CCCNC(=N)N)NC(=O)CNC(=O)[C@H](Cc2ccccc2)NC(=O)[C@@H](NC(=O)CNC(=O)[C@H](CO)NC(=O)CNC(=O)[C@H](CCC(N)=O)NC(=O)[C@@H](NC(=O)[C@H](CCSC)NC(=O)[C@H](CCCCN)NC(=O)[C@@H]2CCCN2C(=O)[C@@H](N)CO)C(C)C)CSSC[C@@H](C(=O)N[C@@H](CCCCN)C(=O)N[C@H](C(=O)N[C@@H](CC(C)C)C(=O)N[C@@H](CCCNC(=N)N)C(=O)N[C@@H](CCCNC(=N)N)C(=O)N[C@@H](Cc2c[nH]cn2)C(=O)O)C(C)C)NC(=O)CNC(=O)[C@H](CC(C)C)NC(=O)CNC(=O)[C@H](CO)NC(=O)[C@H](CO)NC(=O)[C@H](CO)NC(=O)[C@H](CO)NC1=O` [hBNP, Ser^1-Pro^2-Lys^3-Met^4-Val^5-Gln^6-Gly^7-Ser^8-Gly^9-Cys^10-Phe^11-Gly^12-Arg^13-Lys^14-Met^15-Asp^16-Arg^17-Ile^18-Ser^19-Ser^20-Ser^21-Ser^22-Gly^23-Leu^24-Gly^25-Cys^26-Lys^27-Val^28-Leu^29-Arg^30-Lys^31-His^32] the level at 50 min ([1]; male, New Zealand White, plasma, 0.05 ug/kg/min, iv infusion 0.05 μg/kg/min, 50 min, N = 6) was 1.39 ng/mL, the level at 55 min ([1]; male, New Zealand White, plasma, 0.05 ug/kg/min, iv infusion 0.05 μg/kg/min, 55 min, N = 6) was 1.28 ng/mL and the level at 1 h ([1]; male, New Zealand White, plasma, 0.05 ug/kg/min, iv infusion 0.05 μg/kg/min, 60 min, N = 6) was 1.29 ng/mL. It also gave a level at 110 min ([1]; male, New Zealand White, plasma, 0.1 ug/kg/min, iv infusion 0.1 μg/kg/min, 110 min, N = 6) of 3.85 ng/mL, a level at 115 min ([1]; male, New Zealand White, plasma, 0.1 ug/kg/min, iv infusion 0.1 μg/kg/min, 115 min, N = 6) of 3.7 ng/mL and a level at 2 h ([1]; male, New Zealand White, plasma, 0.1 ug/kg/min, iv infusion 0.1 μg/kg/min, 120 min, N = 6) of 2.75 ng/mL. For the same compound, the level at 170 min ([1]; male, New Zealand White, plasma, 0.2 ug/kg/min, iv infusion 0.2 μg/kg/min, 170 min, N = 6) was 7.4 ng/mL, the level at 175 min ([1]; male, New Zealand White, plasma, 0.2 ug/kg/min, iv infusion 0.2 μg/kg/min, 175 min, N = 6) was 8.07 ng/mL and the level at 3 h ([1]; male, New Zealand White, plasma, 0.2 ug/kg/min, iv infusion 0.2 μg/kg/min, 180 min, N = 6) was 6.59 ng/mL. The level at 0 h ([1]; male, New Zealand White, plasma, iv, 0 ug/kg/min, 0 μg/kg/min (before infusion), 0 min, N = 6) was 0.146 ng/mL, the level at -20 min ([1]; male, New Zealand White, plasma, iv, 0 ug/kg/min, 0 μg/kg/min (before infusion), −20 min, N = 6) was 0.166 ng/mL and the “Plasma steady state concentration” value ([1]; infusion rate 0.05 μg/kg/min) was 1319 ± 615 pg/mL. The “Plasma steady state concentration” value ([1]; infusion rate 0.1 μg/kg/min) was 3434 ± 952 pg/mL, the “Plasma steady state concentration” value ([1]; infusion rate 0.2 μg/kg/min) was 7357 ± 1569 pg/mL and the level at 5 min ([2]; 5 min) was 50.1 ng/mL. It also gave a level at 10 min ([2]; 10 min) of 12 ng/mL, a level at […] ([2]; 15 min) of 4.67 ng/mL and a level at 0.5 h ([2]; 30 min) of 1.21 ng/mL. For the same compound, the level at 1 h ([2]; 60 min) was 0.122 ng/mL, the level at […] ([2]; 90 min) was 0.051 ng/mL and the “Mean Plasma Cyclic GMP ± SD” value ([3]; 0 μg/kg/min (saline), 0 min) was 30 ± 16 pmol/mL. For the same compound, the “Mean Plasma Cyclic GMP ± SD” value ([3]; 0 μg/kg/min (saline), −20 min) was 34 ± 15 pmol/mL, the “Change of plasma cyclic GMP during continuous infusion” value ([3]; 0.05, 0.1, 0.2 μg/kg/min, in words) was “dose-related increase in plasma cyclic GMP” and the “Mean Plasma Cyclic GMP ± SD” value ([3]; iv infusion 0.05 μg/kg/min, 50 min) was 68 ± 33 pmol/mL. For the same compound, the “Mean Plasma Cyclic GMP ± SD” value ([3]; iv infusion 0.05 μg/kg/min, 55 min) was 87 ± 29 pmol/mL, the “Mean Plasma Cyclic GMP ± SD” value ([3]; iv infusion 0.05 μg/kg/min, 60 min) was 92 ± 34 pmol/mL and the “Mean Plasma Cyclic GMP ± SD” value ([3]; iv infusion 0.1 μg/kg/min, 110 min) was 131 ± 38 pmol/mL. The “Mean Plasma Cyclic GMP ± SD” value ([3]; iv infusion 0.1 μg/kg/min, 115 min) was 122 ± 35 pmol/mL, the “Mean Plasma Cyclic GMP ± SD” value ([3]; iv infusion 0.1 μg/kg/min, 120 min) was 125 ± 27 pmol/mL and the “Mean Plasma Cyclic GMP ± SD” value ([3]; iv infusion 0.2 μg/kg/min, 170 min) was 159 ± 37 pmol/mL. The “Mean Plasma Cyclic GMP ± SD” value ([3]; iv infusion 0.2 μg/kg/min, 175 min) was 170 ± 43 pmol/mL, the “Mean Plasma Cyclic GMP ± SD” value ([3]; iv infusion 0.2 μg/kg/min, 180 min) was 145 ± 31 pmol/mL and the “Plasma Cyclic GMP” value ([4]; 0 min (before dosing)) was 47 pmol/mL. The “Plasma Cyclic GMP” value ([4]; 5 min) was 201* pmol/mL, the “Plasma Cyclic GMP” value ([4]; 10 min) was 214* pmol/mL and the “Plasma Cyclic GMP” value ([4]; 15 min) was 189* pmol/mL. For the same compound, the “Plasma Cyclic GMP” value ([4]; 30 min) was 146 pmol/mL, the “Plasma Cyclic GMP” value ([4]; 60 min) was 65 pmol/mL and the “Plasma Cyclic GMP” value ([4]; 90 min) was 40 pmol/mL. For the same compound, the “Plasma Cyclic GMP” value ([4]; −20 min (before dosing)) was 46 pmol/mL.
